Experimental data from US9493486B2, “Diazaspirocycloalkane and azaspirocycloalkane” (Hoffmann-La Roche Inc., priority 2012, dated 2016).

These molecules were tested against ATX (human His-tagged) (Homo sapiens (Human), UniProt Q13822) (assay: Human ATX enzyme inhibition assay (fluorescence quenching, MR121 substrate)). Settings: 30 nM ATX, 1 μM MR121 substrate, 30° C.
Type: biochemical
Description: Human ATX Enzyme Inhibition Assay
Assay working solutions were made as follows:
`O=C(NC1CC2(C1)CN(C(=O)OCc1ccccc1)C2)c1ccc2[nH]nnc2c1` [Example 1.07, 6-[(1H-benzotriazole-5-carbonyl)-amino]-2-aza-spiro[3.3]heptane-2-carboxylic acid benzyl ester] was tested, and the IC50 was 4140 nM. Molecule `O=C(CCc1cc(Cl)cc(Cl)c1)N1CC2(CC(NS(=O)(=O)c3ccc4[nH]c(=O)oc4c3)C2)C1` [Example 3.3, 2-oxo-2,3-dihydro-benzooxazole-6-sulfonic acid {2-[3-(3,5-dichloro-phenyl)-propionyl]-2-aza-spiro[3.3]hept-6-yl}-amide] has an IC50 of 59 nM. Work on `CC(OC(=O)N1CCC2(CC1)CN(C(=O)c1ccc3[nH]nnc3c1)C2)c1cc(Cl)cc(Cl)c1` (centres unmarked) [Example 12.07, 1-(3,5-dichlorophenyl)ethyl 2-(1H-benzo[d][1,2,3]triazole-5-carbonyl)-2,7-diazaspiro[3.5]nonane-7-carboxylate] yielded an IC50 of 378 nM. For `Cc1ccc(COC(=O)N2CC3(CC(NC(=O)c4ccc5[nH]nnc5c4)C3)C2)cc1Cl` [Example 12.24, 6-[(1H-benzotriazole-5-carbonyl)-amino]-2-aza-spiro[3.3]heptane-2-carboxylic acid 3-chloro-4-methyl-benzyl ester], the IC50 was 229 nM. With `O=C(c1ccc2[nH]nnc2c1)N1CC2(CCN(C(=O)N3Cc4ccc(Cl)cc4C3)CC2)C1` [Example 10, (2-(1H-Benzo[d][1,2,3]-triazole-5-carbonyl)-2,7-diazaspiro[3.5]nonan-7-yl)(5-chloroisoindolin-2-yl)methanone] the IC50 was 3440 nM. With `O=C(OCc1csc(Cl)c1)N1CCC2(CC1)CN(C(=O)c1ccc3[nH]nnc3c1)C2` [Example 12.12, (5-chlorothiophen-3-yl)methyl 2-(1H-benzo[d][1,2,3]triazole-5-carbonyl)-2,7-diazaspiro[3.5]nonane-7-carboxylate] the IC50 was 332 nM. In the case of `O=C(NC1CC2(C1)CN(C(=O)OCc1ccc(F)c(Cl)c1)C2)c1ccc2[nH]nnc2c1` [Example 12.21, 6-[(1H-benzotriazole-5-carbonyl)-amino]-2-aza-spiro[3.3]heptane-2-carboxylic acid 3-chloro-4-fluoro-benzyl ester], the IC50 is reported as 1250 nM. In the case of `CS(=O)(=O)c1cc(COC(=O)N2CCC3(CC2)CN(C(=O)c2ccc4[nH]nnc4c2)C3)ccc1Cl` [Example 12.06, 4-chloro-3-(methylsulfonyl)benzyl 2-(1H-benzo[d][1,2,3]triazole-5-carbonyl)-2,7-diazaspiro[3.5]nonane-7-carboxylate], the IC50 is reported as 7240 nM. `O=C(c1ccc2[nH]nnc2c1)N1CC2(CCN(S(=O)(=O)CCc3cccc(Cl)c3)CC2)C1` [Example 1.21, (1H-benzotriazol-5-yl)-{7-[2-(3-chloro-phenyl)-ethanesulfonyl]-2,7-diaza-spiro[3.5]non-2-yl}-methanone] was tested, and the IC50 was 821 nM. `O=C(OCc1ccccc1)N1CCC2(CC1)CN(C(=O)c1ccc3[nH]nnc3c1)C2` [Example 1.01, benzyl 2-(1H-benzo[d][1,2,3]triazole-5-carbonyl)-2,7-diazaspiro[3.5]nonane-7-carboxylate] was tested, and the IC50 was 2400 nM. In the case of `O=C(OCc1cc(Cl)cc(Cl)c1)N1CCC2(C1)CN(C(=O)c1ccc3[nH]c(=O)oc3c1)C2` [Example 2, 3,5-Dichlorobenzyl 2-(2-oxo-2,3-dihydro-benzo[d]oxazole-6-carbonyl)-2,6-diazaspiro[3.4]octane-6-carboxylate], the IC50 is reported as 26 nM. For `NS(=O)(=O)c1ccc(C(=O)N2CC3(CCN(C(=O)OCc4ccc(OC(F)(F)F)cc4F)CC3)C2)cc1` [Example 1.23, 2-fluoro-4-(trifluoromethoxy)benzyl 2-(4-sulfamoylbenzoyl)-2,7-diazaspiro[3.5]nonane-7-carboxylate], the IC50 was 1 nM. `O=C(/C=C/c1cc(Cl)cc(Cl)c1)N1CCC2(CC1)CN(C(=O)c1ccc3[nH]nnc3c1)C2` [Example 6, (E)-1-(2-(1H-benzo[d][1,2,3]triazole-5-carbonyl)-2,7-diazaspiro[3.5]nonan-7-yl)-3-(3,5-dichlorophenyl)prop-2-en-1-one] was tested, and the IC50 was 26 nM. For `O=C(/C=C/c1cc(Cl)cc(Cl)c1)N1CCC2(CC1)CN(C(=O)c1ccc3[nH]c(=O)oc3c1)C2` [Example 6.4, 6-{7-[(E)-3-(3,5-dichloro-phenyl)-acryloyl]-2,7-diaza-spiro[3.5]nonane-2-carbonyl}-3H-benzooxazol-2-one], the IC50 was 22 nM. `CS(=O)(=O)c1cc(COC(=O)N2CCC3(CC2)CN(C(=O)c2ccc4[nH]nnc4c2)C3)cc(C(F)(F)F)c1` [Example 12.25, 3-(methylsulfonyl)-5-(trifluoromethyl)benzyl 2-(1H-benzo[d][1,2,3]triazole-5-carbonyl)-2,7-diazaspiro[3.5]nonane-7-carboxylate] was tested, and the IC50 was 92 nM. Molecule `O=C(OCc1ccc(OCC(F)(F)F)cc1)N1CCC2(CC1)CN(C(=O)C1CCc3nn[nH]c3C1)C2` (centres unmarked) [Example 12.39, 4-(2,2,2-trifluoroethoxy)benzyl 2-(4,5,6,7-tetrahydro-1H-benzo[d][1,2,3]triazole-6-carbonyl)-2,7-diazaspiro[3.5]nonane-7-carboxylate] has an IC50 of 5 nM. `O=C(OCc1ccc(C(F)(F)F)cc1)N1CCC2(CC1)CN(C(=O)c1ccc3[nH]c(=O)oc3c1)C2` [Example 12.22, 4-(trifluoromethyl)benzyl 2-(2-oxo-2,3-dihydrobenzo[d]oxazole-6-carbonyl)-2,7-diazaspiro[3.5]nonane-7-carboxylate] gave an IC50 of 439 nM. `O=C(OCc1ccc(C(F)(F)F)cc1F)N1CCC2(CC1)CN(C(=O)[C@H]1CCc3[nH]nnc3C1)C2` [Example 16A, (S)-[2-Fluoro-4-(trifluoromethyl)phenyl]methyl 2-[4,5,6,7-tetrahydro-1H-benzotriazole-5-carbonyl]-2,7-diazaspiro[3.5]nonane-7-carboxylate] gave an IC50 of 100 nM. For `O=C(OCc1cc(Cl)cc(Cl)c1)N1CC2(CCN(C(=O)c3ccc4[nH]nnc4c3)CC2)C1` [Example 1.15, 3,5-dichlorobenzyl 7-(1H-benzo[d][1,2,3]triazole-5-carbonyl)-2,7-diazaspiro[3.5]nonane-2-carboxylate], the IC50 was 64.5 nM. `CC(C)c1cc(Cl)ccc1OCC(=O)N1CCC2(CC1)CN(C(=O)C1CCc3[nH]nnc3C1)C2` (centres unmarked) [Example 1.27, 2-(4-chloro-2-isopropylphenoxy)-1-(2-(4,5,6,7-tetrahydro-1H-benzo[d][1,2,3]triazole-5-carbonyl)-2,7-diazaspiro[3.5]nonan-7-yl)ethanone] was tested, and the IC50 was 41 nM. Work on `O=C(OCc1cc(Cl)cc(Cl)c1)N1CCC2(CC1)CN(S(=O)(=O)c1ccc3[nH]c(=O)oc3c1)C2` [Example 3, 3,5-Dichlorobenzyl 2-(2-oxo-2,3-dihydro-benzo[d]oxazol-6-ylsulfonyl)-2,7-diazaspiro[3.5]nonane-7-carboxylate] yielded an IC50 of 6 nM. Molecule `O=C(OCc1ccc(OC(F)(F)F)c(F)c1)N1CC2(CCN(C(=O)C3CCc4[nH]nnc4C3)CC2)C1` (centres unmarked) [Example 12.33, 3-fluoro-4-(trifluoromethoxy)benzyl 7-(4,5,6,7-tetrahydro-1H-benzo[d][1,2,3]triazole-5-carbonyl)-2,7-diazaspiro[3.5]nonane-2-carboxylate] has an IC50 of 13 nM. Work on `O=C(OCc1ccc(Cl)c(Cl)c1)N1CCC2(CC1)CN(C(=O)c1ccc3[nH]nnc3c1)C2` [Example 12.02, 3,4-dichlorobenzyl 2-(1H-benzo[d][1,2,3]triazole-5-carbonyl)-2,7-diazaspiro[3.5]nonane-7-carboxylate] yielded an IC50 of 44 nM. `O=C(OCc1ccc(OC(F)(F)F)cc1)N1CC2(CCN(C(=O)C3CCc4[nH]nnc4C3)CC2)C1` (centres unmarked) [Example 12.34, 4-(trifluoromethoxy)benzyl 7-(4,5,6,7-tetrahydro-1H-benzo[d][1,2,3]triazole-5-carbonyl)-2,7-diazaspiro[3.5]nonane-2-carboxylate] gave an IC50 of 10 nM. `O=C(CCc1ccc(OC(F)(F)F)cc1)N1CCC2(CC1)CN(C(=O)c1ccc3[nH]nnc3c1)C2` [Example 1.24, 1-(2-(1H-benzo[d][1,2,3]triazole-5-carbonyl)-2,7-diazaspiro[3.5]nonan-7-yl)-3-(4-(trifluoromethoxy)phenyl)propan-1-one] gave an IC50 of 12 nM. With `O=C(OCc1ccc(OC(F)(F)F)cc1F)N1CC2(CCN(C(=O)C3CCc4[nH]nnc4C3)CC2)C1` (centres unmarked) [Example 12.41, 2-fluoro-4-(trifluoromethoxy)benzyl 7-(4,5,6,7-tetrahydro-1H-benzo[d][1,2,3]triazole-5-carbonyl)-2,7-diazaspiro[3.5]nonane-2-carboxylate] the IC50 was 2 nM. With `O=C(OCc1ccc(C(F)(F)F)cc1)N1CCC2(CC1)CN(C(=O)c1ccc3[nH]nnc3c1)C2` [Example 12.15, 4-(trifluoromethyl)benzyl 2-(1H-benzo[d][1,2,3]triazole-5-carbonyl)-2,7-diazaspiro[3.5]nonane-7-carboxylate] the IC50 was 35 nM. In the case of `CS(=O)(=O)c1cc(Cl)ccc1COC(=O)N1CCC2(CC1)CN(C(=O)c1ccc3[nH]nnc3c1)C2` [Example 12.27, 4-chloro-2-(methylsulfonyl)benzyl 2-(1H-benzo[d][1,2,3]triazole-5-carbonyl)-2,7-diazaspiro[3.5]nonane-7-carboxylate], the IC50 is reported as 140 nM. In the case of `CS(=O)(=O)c1cc(COC(=O)N2CCC3(CC2)CN(C(=O)c2ccc4[nH]c(=O)oc4c2)C3)cc(C(F)(F)F)c1` [Example 12.26, 3-(methylsulfonyl)-5-(trifluoromethyl)benzyl 2-(2-oxo-2,3-dihydrobenzo[d]oxazole-6-carbonyl)-2,7-diazaspiro[3.5]nonane-7-carboxylate], the IC50 is reported as 53 nM. In the case of `O=C(C#Cc1ccc(Cl)cc1)N1CCC2(CC1)CN(C(=O)c1ccc3[nH]nnc3c1)C2` [Example 6.9, 1-(2-(1H-benzo[d][1,2,3]triazole-5-carbonyl)-2,7-diazaspiro[3.5]nonan-7-yl)-3-(4-chlorophenyl)prop-2-yn-1-one], the IC50 is reported as 128 nM. `O=C(OCc1ccc(Cl)nc1)N1CCC2(CC1)CN(C(=O)c1ccc3[nH]nnc3c1)C2` [Example 12.05, (6-chloropyridin-3-yl)methyl 2-(1H-benzo[d][1,2,3]triazole-5-carbonyl)-2,7-diazaspiro[3.5]nonane-7-carboxylate] gave an IC50 of 4980 nM. `O=C(CCc1cc(Cl)cc(Cl)c1)N1CCC2(CC1)CC(Nc1ccc3[nH]c(=O)oc3c1)C2` [Example 6.1, 6-(7-(3-(3,5-dichlorophenyl)propanoyl)-7-azaspiro[3.5]nonan-2-ylamino)benzo[d]oxazol-2(3H)-one] gave an IC50 of 362 nM.
